The target in test [1] is T1, 1,3-beta-glucan synthase (Candida tropicalis, UniProt B6S6L8, S80P). Kind of test: Inhibition of Candida tropicalis T19 blood stream isolate glucan synthase subunit FKS1p with FLTLS/PLRDP mutant at monophasic kinetics.
The target of test [2] is 1,3-beta-glucan synthase (Candida tropicalis, UniProt B6S6L8, F76L). The test is described as follows: Inhibition of Candida tropicalis T26 blood stream isolate glucan synthase subunit FKS1p with LLTLSLRDP mutant at monophasic kinetics.
1,3-beta-glucan synthase (Candida tropicalis, UniProt B6S6L8, F76L), sequence (B6S6L8 entry or part of it, stated change not applied): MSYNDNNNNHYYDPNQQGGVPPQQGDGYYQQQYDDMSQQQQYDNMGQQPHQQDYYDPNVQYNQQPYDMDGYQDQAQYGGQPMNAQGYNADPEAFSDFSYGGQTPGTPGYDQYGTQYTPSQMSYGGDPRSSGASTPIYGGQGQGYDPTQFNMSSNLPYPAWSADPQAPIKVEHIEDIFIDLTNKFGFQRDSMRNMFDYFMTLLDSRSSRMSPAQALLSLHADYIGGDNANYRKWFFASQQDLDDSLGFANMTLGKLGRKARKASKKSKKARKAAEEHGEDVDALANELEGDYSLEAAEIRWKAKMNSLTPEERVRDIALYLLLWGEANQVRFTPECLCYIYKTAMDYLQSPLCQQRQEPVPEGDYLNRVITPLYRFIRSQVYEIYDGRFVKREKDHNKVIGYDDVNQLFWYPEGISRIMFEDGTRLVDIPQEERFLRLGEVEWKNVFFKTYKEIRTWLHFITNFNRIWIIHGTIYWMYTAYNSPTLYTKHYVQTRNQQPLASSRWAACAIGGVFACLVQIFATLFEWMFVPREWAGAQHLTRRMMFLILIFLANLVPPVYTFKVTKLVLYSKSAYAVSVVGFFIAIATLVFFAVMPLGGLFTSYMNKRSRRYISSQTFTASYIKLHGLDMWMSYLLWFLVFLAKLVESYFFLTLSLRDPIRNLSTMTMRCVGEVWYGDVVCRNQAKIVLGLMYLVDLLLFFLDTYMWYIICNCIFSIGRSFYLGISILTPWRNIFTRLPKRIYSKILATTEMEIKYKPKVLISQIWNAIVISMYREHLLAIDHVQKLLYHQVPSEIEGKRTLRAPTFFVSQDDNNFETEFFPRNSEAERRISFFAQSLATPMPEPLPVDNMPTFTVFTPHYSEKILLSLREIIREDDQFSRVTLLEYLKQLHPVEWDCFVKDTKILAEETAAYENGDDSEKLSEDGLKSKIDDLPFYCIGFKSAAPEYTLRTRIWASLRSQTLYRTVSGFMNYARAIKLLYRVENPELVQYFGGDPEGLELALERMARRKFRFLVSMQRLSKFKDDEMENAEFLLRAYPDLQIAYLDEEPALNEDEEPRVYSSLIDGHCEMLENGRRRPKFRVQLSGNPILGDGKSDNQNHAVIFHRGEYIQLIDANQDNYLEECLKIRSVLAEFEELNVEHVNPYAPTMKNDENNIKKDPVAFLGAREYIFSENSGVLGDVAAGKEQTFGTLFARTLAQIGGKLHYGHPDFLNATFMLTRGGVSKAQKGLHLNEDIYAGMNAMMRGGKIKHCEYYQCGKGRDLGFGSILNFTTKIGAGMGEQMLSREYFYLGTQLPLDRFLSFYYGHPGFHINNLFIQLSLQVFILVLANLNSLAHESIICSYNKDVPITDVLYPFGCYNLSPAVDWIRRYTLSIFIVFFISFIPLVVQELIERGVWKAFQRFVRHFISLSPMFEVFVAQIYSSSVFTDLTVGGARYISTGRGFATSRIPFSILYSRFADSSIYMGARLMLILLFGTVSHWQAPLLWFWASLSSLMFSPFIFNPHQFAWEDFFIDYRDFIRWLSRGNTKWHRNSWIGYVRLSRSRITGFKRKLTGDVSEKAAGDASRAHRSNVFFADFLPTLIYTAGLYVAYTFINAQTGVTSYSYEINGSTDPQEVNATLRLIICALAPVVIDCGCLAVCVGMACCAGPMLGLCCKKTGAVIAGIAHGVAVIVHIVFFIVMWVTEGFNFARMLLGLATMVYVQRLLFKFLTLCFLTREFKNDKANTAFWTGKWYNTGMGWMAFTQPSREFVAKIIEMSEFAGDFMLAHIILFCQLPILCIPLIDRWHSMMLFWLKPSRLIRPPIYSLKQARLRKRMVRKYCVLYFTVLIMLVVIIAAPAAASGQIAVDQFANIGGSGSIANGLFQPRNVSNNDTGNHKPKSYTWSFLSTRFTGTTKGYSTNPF
For test [3], the target named is T2, 1,3-beta-D-glucan synthase catalytic subunit (Candida albicans, UniProt O13383).
T2 sequence (O13383 whole entry): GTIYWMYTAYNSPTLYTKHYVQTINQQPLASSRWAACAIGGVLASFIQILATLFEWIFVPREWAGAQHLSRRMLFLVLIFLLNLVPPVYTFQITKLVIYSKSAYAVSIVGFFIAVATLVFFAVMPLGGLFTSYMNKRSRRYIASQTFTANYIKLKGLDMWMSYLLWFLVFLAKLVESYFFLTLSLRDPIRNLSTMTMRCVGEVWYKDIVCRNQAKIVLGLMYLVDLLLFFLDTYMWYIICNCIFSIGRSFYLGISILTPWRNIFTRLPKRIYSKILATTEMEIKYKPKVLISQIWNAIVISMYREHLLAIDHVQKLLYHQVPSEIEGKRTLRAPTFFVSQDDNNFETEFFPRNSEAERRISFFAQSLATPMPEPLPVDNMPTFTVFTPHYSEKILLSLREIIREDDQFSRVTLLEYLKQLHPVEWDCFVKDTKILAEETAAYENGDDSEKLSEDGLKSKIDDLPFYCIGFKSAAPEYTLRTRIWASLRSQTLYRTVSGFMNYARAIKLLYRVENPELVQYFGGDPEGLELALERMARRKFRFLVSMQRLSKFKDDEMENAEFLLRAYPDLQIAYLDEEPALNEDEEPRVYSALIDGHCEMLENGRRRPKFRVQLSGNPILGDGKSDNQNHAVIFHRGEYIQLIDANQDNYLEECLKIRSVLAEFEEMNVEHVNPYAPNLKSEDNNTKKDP
The test is described as follows: Inhibition of Candida albicans ATCC 90028 glucan synthase at monophasic kinetics.

Test [4] concerns the target T1, 1,3-beta-glucan synthase. Kind of test: Inhibition of Candida tropicalis T3 blood stream isolate glucan synthase subunit FKS1p with FLTLS/PLRDP mutant at biphasic kinetics.
The target of test [5] is T1, 1,3-beta-glucan synthase. Kind of test: Inhibition of Candida tropicalis T19 blood stream isolate glucan synthase subunit FKS1p with FLTLS/PLRDP mutant at biphasic kinetics.
In test [6] the target is T1, 1,3-beta-glucan synthase. Kind of test: Inhibition of Candida tropicalis T3 blood stream isolate glucan synthase subunit FKS1p with FLTLS/PLRDP mutant at monophasic kinetics.

The pIC50 is the negative decadic logarithm of the IC50, by convention in mol/L.

SMILES strings stand for the structures. pIC50: −log10 of the molar value.

T1 sequence (B6S6L8 entry or part of it, stated change not applied): as the sequence (B6S6L8 entry or part of it, stated change not applied) above

`CCC(C)CC(C)CCCCCCCCC(=O)N[C@H]1C[C@@H](O)[C@@H](NCCN)NC(=O)[C@@H]2[C@@H](O)CCN2C(=O)[C@H]([C@H](O)CCN)NC(=O)[C@H]([C@H](O)[C@@H](O)c2ccc(O)cc2)NC(=O)[C@@H]2C[C@@H](O)CN2C(=O)[C@H]([C@@H](C)O)NC1=O` (stereo partly specified) [CHEBI:474180]: the negative-log IC50 (pIC50) at 1,3-beta-glucan synthase [1] was 9.53; against 1,3-beta-glucan synthase [2], 7.11; in test [3], 9.30; on 1,3-beta-glucan synthase [4] it was 6.43; at 1,3-beta-glucan synthase [5], 6.58; against 1,3-beta-glucan synthase [6], 9.51.

The values are drawn from BindingDB's records for doi:10.1128/AAC.00802-08 (University of Medicine and Dentistry of New Jersey, 2008).
